Results taken from patent WO2022059996A1, “Blood circulation micro in-vitro corpuscle-mediated cancer treatment composition” (SEOUL TECHNO HOLDINGS Inc, priority 2020, dated 2022).

What was measured:
YAP [1] = test: csEV-induced nuclear localization of YAP in GR-H1993 cells; type: cell-based
LNCaP-SL cells [2] = test: csEV-mediated LNCaP-SL transwell migration inhibition; type: cell-based, human; details: csEV as attractant
HCT116 cells = test: Antiproliferative screening in HCT116 colon cancer cells; type: cell-based, human; details: medium containing csEV and compound; inhibitory in both HCT116 and LNCaP-SL
[3] = system: GR-H1993 (gefitinib-resistant-H1993) cells; test: csEV-mediated proliferation of GR-H1993 cells; type: cell-based; details: csEV treatment
LNCaP-SL cells [4] = test: Antiproliferative screening in metastatic LNCaP-SL prostate cancer cells; type: cell-based, human; details: medium containing csEV and compound; inhibitory in both HCT116 and LNCaP-SL
YAP [5] = test: Immunocytochemical analysis of YAP expression and nuclear localization; type: cell-based; details: csEV incubation; KRCT-6j given on top of csEV
LNCaP-SL cells [6] = test: LNCaP-SL proliferation with docetaxel in the presence or absence of EV; type: cell-based, human; details: 50 nM docetaxel; EV-containing normal 10% FBS versus 10% FBS without EVs
GR-H1993 cells = test: GR-H1993 xenograft mouse model; type: in vivo; details: gefitinib 25 mg/kg PO, KRCT-6j 20 mg/kg IP, daily for 28 days, male Athymic BALB/c-nu mice

Cn1cc(-c2cnc(Nc3cc(Cl)cc(Cl)c3)nc2NC2CCCCC2)cn1 [KRCT-6j, N 4 -Cyclohexyl-N 2-(3,5-dichlorophenyl)-5-(1-methyl-1 H -pyrazol-4-yl)pyrimidine-2,4-diamine]
csEV-induced nuclear localization of YAP (YAP [1]): inhibited
inhibition of csEV-promoted migration of LNCaP-SL cells (LNCaP-SL cells [2]): inhibited by KRCT-6j in a concentration-dependent manner
proliferation inhibitory response, HCT116 (HCT116 cells): both cell inhibitory responses
proliferation of GR-H1993 cells [3]: inhibit only the proliferative effect of csEV-mediated GR-H1993
proliferation inhibitory response, LNCaP-SL (LNCaP-SL cells [4]): both cell inhibitory responses
YAP expression and nuclear localization (YAP [5]): decreased again

CC(=O)O[C@@]12CO[C@@H]1C[C@H](O)[C@@]1(C)C(=O)[C@H](O)C3=C(C)[C@@H](OC(=O)[C@H](O)[C@@H](NC(=O)OC(C)(C)C)c4ccccc4)C[C@@](O)([C@@H](OC(=O)c4ccccc4)[C@H]21)C3(C)C [docetaxel]
resistance of LNCaP-SL cells to docetaxel (LNCaP-SL cells [6]): much more resistant to docetaxel

COc1cc2ncnc(Nc3ccc(F)c(Cl)c3)c2cc1OCCCN1CCOCC1 [gefitinib]
tumor growth, GR-H1993 xenograft (GR-H1993 cells): did not affect tumor growth
